Data reported in patent US20250288547A1, “TREATMENT OF DISEASES CAUSED BY RNA VIRUSES” (Amerimmune LLC, priority 2021, published 2025).

Key:
mild COVID-19 = assay: Phase 1 double-blinded placebo-controlled safety and tolerability study in symptomatic outpatient mild-COVID-19 patients (Example 10); assay type: in vivo, human
Method: A double-blinded, placebo-controlled randomized safety and tolerability study (1:1 active: placebo) was performed in a number symptomatic outpatient mild-COVID-19 patients receiving standard of care therapy. A total of 13 patients were enrolled at a single site in New York City. Treatment involved administering Emricasan (EMR) (or placebo) at 25 mg BID dosing for 14 days, with follow-up for an additional month. […] This study was thus designed to evaluate safety and tolerability, with the primary endpoint being the difference, if any, between treatment-related adverse events (AEs), including severe adverse events (SAEs), if any, in the active (EMR) and placebo groups through day 14. The pharmacokinetics (PK) of EMR has been extensively studied in earlier clinical trials. Accordingly, patients in this Phase 1 study were sampled at the end of the study to confirm that Emricasan pharmacokinetics was not altered in COVID-19 patients. Secondary endpoints included various clinical and laboratory measures and patient reported outcomes (PROs) using a COVID-19-related assessment tool.

ACE-2 receptor = conditions: subsequent reports; cited from earlier work
[1] = in vivo; cited from earlier work
[2] = molecular target: T1, main protease of SARS-COV-2 (Severe acute respiratory syndrome coronavirus 2, UniProt P0DTD1); conditions: subsequent reports; cited from earlier work
T1 construct: the main protease of SARS-COV-2

[3] = tested on: red blood cell (RBC) layer in the PBMC layer (RBC aggregation); assay: “Red ring” (contaminating RBC layer in PBMC layer) in COVID-19 patient samples; assay type: cell-based, human; conditions: PBMCs from COVID-19 patient samples, 1 micromolar, room temperature, 17 hours
Description: One of the observations made during the preparation of peripheral blood mononuclear cells (PBMC) for some of the experiments described herein was the presence of a contaminating red blood cell (RBC) layer in the PBMC layer, which was referred to as a “red ring”. This “red ring” was present in all COVID-19 patient samples, with no difference between critically ill patients and those who were only on supportive care outside the ICU setting (see FIG. 12A).
When PBMCs isolated from COVID-19 patient samples were incubated with Emricasan (1 micromolar) at room temperature for 17 hours, a decrease in the “red ring” was observed.

Caspase 1 = Caspase 1 (Homo sapiens, UniProt P29466); assay: Active caspase-1 FLICA flow cytometry, whole blood from COVID-19 (+) patients incubated with Emricasan (Example 7); assay type: cell-based; parameters: dose or concentration left out as unconfirmed; conditions: 17 hours (overnight) room temperature on a rocker, 3 samples from COVID-19 patients
Method: Whole blood from COVID-19 (+) patients was incubated either (A) without addition of Emricasan (Untreated) or (B) with Emricasan (Sigma Aldrich, MO, SML2227-5 MG), 1 μM final concentration for 3.5 hours at room temperature (Treated). Following incubation with or without Emricasan, PBMCs were purified using an Accuspin System—Histopaque 1077 (Sigma Aldrich, MO, A6929) as per the manufacturer's instructions. Purified Treated and Untreated PBMCs were incubated with nigericin (Immunochemistry Technologies, MN) as per the manufacturer's instructions for 2 hours. […] PMBCs were washed with cell wash buffer (Immunochemistry Technologies, MN) to remove unbound FLICA probes. Washed PBMCs were FACS-sorted using CD45 PE-CY7 [HI30], CD3 AF700 [UCHT1], CD4 PE [RPA-T4], CD45RO PerCP-EF710 [UCHL1], and Viability Dye 780 (Thermo Fisher Scientific, Carlsbad, CA) to identify viable CD3-cells as well as CD3+ cells and CD3+CD4+ T cells. Lymphocytes were identified using a standard gating schematic that incorporated gating of lymphocytes on a FSC/SSC plot and singlets on a FSC-A/FSC-H plot. Lymphocytes were further identified as CD45+ on a CD45/SSC plot and subsequent CD3−, CD3+, and CD3+CD4+ cells were identified on a CD45+CD3/CD4 plot.
In another experiment, whole blood was incubated with […] Emricasan for 17 hours (overnight between 5 PM to 10 AM) at room temperature on a rocker. […]

caspase-1 = molecular target: T2, caspase-1 (Homo sapiens, UniProt P29466); assay: Ex vivo active caspase-1 in CD4 T cells, whole blood incubated with caspase inhibitors with or without nigericin (Example 9); assay type: cell-based; conditions: inhibitor incubation, 24 hrs later with or without nigericin; for T-helper cell caspase-1 expression: COVID-19 whole blood samples
T2 sequence (P29466 120-297 limits assumed): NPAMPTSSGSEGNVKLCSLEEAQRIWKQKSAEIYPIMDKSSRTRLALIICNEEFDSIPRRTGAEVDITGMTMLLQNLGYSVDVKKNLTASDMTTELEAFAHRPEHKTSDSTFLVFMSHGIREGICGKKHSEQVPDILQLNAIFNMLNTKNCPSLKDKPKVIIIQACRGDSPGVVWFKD
T2 sequence (P29466 317-404 limits assumed): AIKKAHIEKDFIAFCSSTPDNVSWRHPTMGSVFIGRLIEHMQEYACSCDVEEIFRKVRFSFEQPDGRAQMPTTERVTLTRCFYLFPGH

caspase-3 = molecular target: T3, caspase-3 (Homo sapiens, UniProt P42574); assay: Caspase-3 in red blood cells incubated with patient plasma (Example 9); assay type: cell-based
T3 construct: endogenous in cells; host or cells: human red blood cells incubated with patient plasma
T3 sequence (P42574 29-175 limits assumed): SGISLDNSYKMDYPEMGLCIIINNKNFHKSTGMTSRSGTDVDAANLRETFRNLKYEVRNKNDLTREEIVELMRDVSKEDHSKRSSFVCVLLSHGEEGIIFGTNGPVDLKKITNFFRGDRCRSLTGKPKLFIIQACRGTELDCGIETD
T3 sequence (P42574 176-277 limits assumed): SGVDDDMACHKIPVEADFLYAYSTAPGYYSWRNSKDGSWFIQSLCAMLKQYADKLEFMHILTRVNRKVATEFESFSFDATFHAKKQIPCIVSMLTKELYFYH

Structure (SMILES) | serious adverse events (mild COVID-19; 25 mg BID 14 days, mild COVID-19 outpatients) | safety and tolerability (mild COVID-19; 25 mg BID 14 days, during 2 weeks of dosing and at week 10 follow up, compared to placebo) | resolution of symptoms most commonly associated with mild COVID-19 (cough, headache, fatigue) (mild COVID-19; patients who completed treatment, at day 7, continued through Day 45) | inhibition of ACE-2 receptor binding activity for SARS-COV-2 (ACE-2 receptor) | safety and tolerance profile [1] | inhibition of main protease activity [2] | “red ring” (contaminating RBC layer in PBMC layer) [3] | samples showing inhibition of nigericin-induced Caspase-1 activity (Caspase 1) | T-helper cell caspase-1 expression (caspase-1) | T-helper cell caspase-1 upregulation (caspase-1; healthy subjects' whole blood) | RBC caspase-3 up-regulation (caspase-3; healthy subjects' RBCs, COVID-19 plasma incubated samples) | RBC baseline caspase-3 expression levels (caspase-3; influenza-plasma incubated samples)
C[C@H](NC(=O)C(=O)Nc1ccccc1C(C)(C)C)C(=O)N[C@@H](CC(=O)O)C(=O)COc1c(F)c(F)cc(F)c1F [Emricasan, (3S)-3-{[(2S)-2-{[2-(2-tert-butylanilino)-2-oxoacetyl]amino}propanoyl]amino}-4-oxo-5-(2,3,5,6-tetrafluorophenoxy) pentanoic acid] | no reports of serious adverse events | safe and well tolerated | complete resolution | inhibit the binding activity | excellent safety and tolerance profile | may also inhibit | decrease | ⅓ | suppressed | prevented its upregulation | suppressed | did not change
CCO[C@@H]1OC(=O)C[C@@H]1NC(=O)[C@@H]1CCCN1C(=O)[C@@H](NC(=O)c1ccc(N)c(Cl)c1)C(C)(C)C [VX765, Belnacasan] |  |  |  |  |  |  |  |  | did not show a strong similar suppressive effect |  |  | 
